Common to all, as to test: ≥ marks a high value that may be exact or a test limit, other limits are often not marked, values filed in µg/mL are converted to µM
Experiment [1] relates to Candida albicans ATCC 2002.
The test system of experiment [2] is Staphylococcus aureus ATCC 2592.
For experiment [3], the system named is Escherichia coli ATCC 25922.
For a further experiment, the system named is Bacillus subtilis.
In experiment [4] the test system is Staphylococcus aureus USA 100.
Experiment [5] deals with Pseudomonas fluorescens NCIMB 9046.
The subject of experiment [6] is Klebsiella pneumoniae NCIMB 13218.
Experiment [7] relates to Cronobacter sakazakii DPC 6440.
Experiment [8] relates to Cronobacter muytjensii ATCC 51329.
Experiment [9] deals with Cronobacter sakazakii ATCC BAA-894.
Experiment [10] has as its system Salmonella enterica subsp. enterica serovar Typhimurium LT2.
Experiment [11] concerns Cronobacter sakazakii DSM 4485.
The subject of experiment [12] is Staphylococcus aureus NCTC 8325-4.
For experiment [13], the system named is Staphylococcus aureus Newman.
Experiment [14] has as its system Escherichia coli NCIMB 11843.
The test system of experiment [15] is Staphylococcus aureus RF122.
Experiment [16] concerns Staphylococcus aureus SA113.
Experiment [17] concerns Staphylococcus aureus RN4220.
For experiment [18], the system named is Staphylococcus aureus USA 300.
Experiment [19] concerns Pseudomonas aeruginosa ATCC 9027.
Experiment [20] deals with Candida albicans ATCC 90028.
The test system of experiment [21] is Pseudomonas aeruginosa ATCC 27853.

Molecules are shown by their SMILES. Converted amounts (≈) assume the structure as drawn.

By MIC is commonly meant the least concentration at which growth counts as inhibited. Low readings indicate greater potency, high ones weaker potency. As to `CC[C@H](C)[C@H](NC(=O)CNC(=O)[C@H](Cc1c[nH]c2ccccc12)NC(=O)[C@H](C)NC(=O)[C@H](CCCCN)NC(=O)[C@H](C)N)C(=O)NCC(=O)NCC(=O)N[C@@H](Cc1cnc[nH]1)C(=O)N[C@H](C(=O)N[C@H](C(=O)NCC(=O)N[C@@H](CCC(N)=O)C(=O)N[C@H](C(=O)N[C@H](C(=O)NCC(=O)N[C@H](C(=O)N[C@@H](CCCN=C(N)N)C(=O)N[C@H](C(=O)N[C@@H](CCCN=C(N)N)C(=O)NCC(=O)N[C@@H](CC(C)C)C(=O)N[C@@H](CS)C(=O)NCC(=O)N[C@@H](CC(N)=O)C(=O)N[C@H](C(=O)O)C(C)C)[C@@H](C)CC)C(C)C)C(C)C)[C@@H](C)CC)[C@@H](C)CC)C(C)C` [AKAWGIGGHVIGQIVGVRIRGLCGNV], the values for the MIC in experiment [1], in experiment [2] and in experiment [3] were 19 µM (≈ 50 µg/mL), 4.79 µM (≈ 12.6 µg/mL) and 9.5 µM (≈ 25 µg/mL), respectively.

For `CC[C@H](C)[C@H](NC(=O)[C@H](C)NC(=O)[C@H](CS)NC(=O)[C@@H](NC(=O)[C@@H](NC(=O)[C@@H](NC(=O)CNC(=O)[C@@H](NC(=O)[C@@H](NC(=O)[C@@H](NC(=O)[C@H](C)NC(=O)[C@H](Cc1ccccc1)NC(=O)[C@H](CC(C)C)NC(=O)[C@H](CCCN=C(N)N)NC(=O)[C@H](CCCN=C(N)N)NC(=O)[C@H](CC(C)C)NC(=O)CNC(=O)CNC(=O)[C@@H](NC(=O)[C@@H](N)Cc1ccccc1)[C@@H](C)CC)[C@@H](C)O)C(C)C)C(C)C)[C@@H](C)O)C(C)C)C(C)C)C(=O)N[C@@H](CC(N)=O)C(=O)N[C@@H](CCCCN)C(=O)N[C@@H](CC(C)C)C(=O)NCC(=O)NCC(=O)NCC(=O)O` [FIGGLRRLFATVVGTVVCAINKLGGG], the MIC in experiment [1] was 4.77 µM (≈ 12.5 µg/mL); in the experiment on Bacillus subtilis, ≥ 38.2 µM; in [2], 4.77 µM (≈ 12.5 µg/mL); in experiment [3], 4.77 µM (≈ 12.5 µg/mL).

For the compound `NC(=O)[C@H](CCCN=C(N)N)NC(=O)[C@H](Cc1cnc[nH]1)NC(=O)[C@H](CCCN=C(N)N)NC(=O)[C@@H](N)Cc1cnc[nH]1` [HRHR], in experiment [4], the MIC was ≥ 100 µM.

On to `CC[C@H](C)[C@H](N)C(=O)N[C@@H](CCCCN)C(=O)N[C@@H](C)C(=O)N[C@@H](CCC(N)=O)C(=O)NCC(=O)N[C@@H](CC(C)C)C(=O)N1CCC[C@H]1C(=O)N[C@@H](CCC(N)=O)C(=O)N[C@@H](CCC(=O)O)C(=O)O` [IKAQGLPQE], for which the MIC in [5] was ≥ 1250 µM; in [6], ≥ 1250 µM; in experiment [7], ≥ 625 µM; in experiment [8], ≥ 2500 µM; in experiment [9] it was ≥ 2500 µM; in experiment [10], ≥ 1250 µM. The MIC is ≥ 2500 µM in experiment [11]; ≥ 1250 µM in experiment [12]; ≥ 1250 µM in experiment [13]; ≥ 1250 µM in experiment [14]; ≥ 1250 µM in experiment [15]; ≥ 1250 µM in experiment [16]. The minimum inhibitory concentration (MIC) in experiment [17] was ≥ 1250 µM.

`CC[C@H](C)[C@H](N)C(=O)N[C@@H](CCCCN)C(=O)N[C@@H](Cc1cnc[nH]1)C(=O)N[C@@H](CCCN=C(N)N)C(=O)NCC(=O)N[C@@H](CC(C)C)C(=O)N1CCC[C@H]1C(=O)N[C@@H](CCC(N)=O)C(=O)N[C@@H](CCC(=O)O)C(=O)O` [IKHRGLPQE]: the MIC in [5] was ≥ 2500 µM; in experiment [6], ≥ 1250 µM; in [7], ≥ 312 µM; in experiment [8], ≥ 1250 µM; in experiment [9], ≥ 2500 µM; in [10] it was ≥ 1250 µM. Further, the minimal inhibitory concentration (MIC) in experiment [11] was ≥ 2500 µM; in experiment [12], ≥ 1250 µM; in experiment [13], ≥ 1250 µM; in experiment [14], ≥ 1250 µM; in experiment [15], ≥ 625 µM; in experiment [16], ≥ 1250 µM. Also, the MIC in experiment [17] was ≥ 1250 µM.

Regarding `CC[C@H](C)[C@H](N)C(=O)N[C@@H](CCCN=C(N)N)C(=O)N[C@@H](Cc1cnc[nH]1)C(=O)N[C@@H](CCC(N)=O)C(=O)NCC(=O)N[C@@H](CC(C)C)C(=O)N1CCC[C@H]1C(=O)N[C@@H](CCC(N)=O)C(=O)N[C@@H](CCC(=O)O)C(=O)O` [IRHQGLPQE], the MIC in experiment [5] was ≥ 1250 µM; in [6] it was ≥ 2500 µM; in [7], ≥ 1250 µM; in experiment [8], ≥ 1250 µM; in [9], ≥ 625 µM; in experiment [10], ≥ 2500 µM. Further, the MIC in experiment [11] was ≥ 1250 µM; in experiment [12], ≥ 2500 µM; in [13], ≥ 2500 µM; in experiment [14] it was ≥ 1250 µM; in experiment [15] it was ≥ 625 µM; in experiment [16], ≥ 2500 µM. For the same compound, the MIC in [17] is ≥ 2500 µM.

`NCCCC[C@H](NC(=O)[C@H](CCCN=C(N)N)NC(=O)[C@@H](N)CCCCN)C(=O)N[C@@H](CCCN=C(N)N)C(N)=O` [KRKR]: the MIC in experiment [4] was ≥ 100 µM.

Regarding `NCCCC[C@H](NC(=O)[C@H](Cc1c[nH]c2ccccc12)NC(=O)[C@H](CCCCN)NC(=O)[C@H](Cc1c[nH]c2ccccc12)NC(=O)[C@H](Cc1c[nH]c2ccccc12)NC(=O)[C@H](CCCCN)NC(=O)[C@H](Cc1c[nH]c2ccccc12)NC(=O)[C@@H](N)CCCCN)C(N)=O` [KWKWWKWK], the MIC is 6.25 µM (≈ 7.97 µg/mL) in experiment [18], 50 µM (≈ 63.7 µg/mL) in experiment [19], 12.5 µM (≈ 15.9 µg/mL) in [4] and ≥ 100 µM in experiment [20].

With `CC(C)C[C@H](NC(=O)CNC(=O)[C@H](Cc1ccccc1)NC(=O)[C@H](CC(C)C)NC(=O)[C@H](CCCN=C(N)N)NC(=O)[C@H](CC(C)C)NC(=O)[C@H](Cc1c[nH]c2ccccc12)NC(=O)CNC(=O)CNC(=O)[C@H](CO)NC(=O)[C@H](CCCCN)NC(=O)[C@H](CC(C)C)NC(=O)[C@H](C)NC(=O)[C@@H](N)CC(C)C)C(=O)N[C@@H](CCCCN)C(=O)N[C@@H](CC(=O)O)C(=O)N[C@@H](CCCCN)C(=O)N[C@@H](CCCCN)C(=O)N[C@@H](Cc1cnc[nH]1)C(N)=O` [LALKSGGWLRLFGLKDKKH], the MIC in experiment [1] is ≥ 35 µM; in [2], 17 µM (≈ 36.8 µg/mL); in experiment [3], 35 µM (≈ 75.8 µg/mL); in experiment [19], 9 µM (≈ 19.5 µg/mL).

For the compound `NC(=O)[C@H](Cc1c[nH]c2ccccc12)NC(=O)[C@H](Cc1c[nH]c2ccccc12)NC(=O)[C@H](Cc1c[nH]c2ccccc12)NC(=O)[C@H](CCCN=C(N)N)NC(=O)[C@H](CCCN=C(N)N)NC(=O)[C@@H](N)CCCN=C(N)N` [RRRWWW], the MIC is 25 µM (≈ 26.1 µg/mL) in [18], 50 µM (≈ 52.2 µg/mL) in [19], 25 µM (≈ 26.1 µg/mL) in [4] and ≥ 100 µM in [20].

For the compound `CC(C)C[C@H](NC(=O)[C@H](CC(C)C)NC(=O)[C@H](CC(N)=O)NC(=O)[C@H](C)NC(=O)[C@H](CC(N)=O)NC(=O)[C@H](CC(C)C)NC(=O)[C@@H](N)C(C)C)C(=O)N[C@@H](CCCN=C(N)N)C(=O)O` [VLNANLLR], the MIC in experiment [5] is ≥ 1250 µM; in experiment [6], ≥ 2500 µM; in experiment [7], ≥ 1250 µM; in [8], ≥ 2500 µM; in experiment [9], ≥ 2500 µM; in [10], ≥ 2500 µM. Moreover, the MIC is ≥ 1250 µM in [11]; ≥ 1250 µM in experiment [12]; ≥ 1250 µM in [13]; ≥ 2500 µM in [14]; ≥ 1250 µM in [15]; ≥ 1250 µM in experiment [16]. Further, the results for the MIC in experiment [21] and in experiment [17] were 32 µM (≈ 29.2 µg/mL) and ≥ 1250 µM, respectively.

As for `CC(C)C[C@H](NC(=O)[C@H](CC(C)C)NC(=O)[C@H](CC(N)=O)NC(=O)[C@H](CCC(=O)O)NC(=O)[C@H](CC(N)=O)NC(=O)[C@H](CC(C)C)NC(=O)[C@@H](N)C(C)C)C(=O)N[C@@H](Cc1cnc[nH]1)C(=O)O` [VLNENLLH], the MIC in [5] is ≥ 1250 µM; in experiment [6] it was ≥ 1250 µM; in experiment [7], ≥ 1250 µM; in experiment [8] it was ≥ 1250 µM; in experiment [9], ≥ 1250 µM; in experiment [10] it was ≥ 2500 µM. Besides, the MIC in [11] was ≥ 1250 µM; in experiment [12], ≥ 1250 µM; in [13], ≥ 1250 µM; in experiment [14] it was ≥ 2500 µM; in experiment [15] it was ≥ 1250 µM; in [16] it was ≥ 1250 µM. Moreover, the results for the MIC in experiment [21] and in [17] were 32 µM (≈ 30.4 µg/mL) and ≥ 1250 µM, respectively.

Source of the values: DBAASP.
